PubChem BioAssay (NCI)
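Here, GI50 denotes the concentration required for 50% inhibition of growth. TGI: total growth inhibition.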

How the values were obtained:
Experiment in all cases: growth of human tumour cells (NCI), 384-well format
MDA-MB-468 breast = test system: MDA-MB-468 breast
PC-3 prostate = test system: PC-3 prostate
MALME-3M melanoma = test system: MALME-3M melanoma
HCT-116 colon = test system: HCT-116 colon
CAKI-1 renal = test system: CAKI-1 renal
SF-539 CNS = test system: SF-539 CNS
SK-OV-3 ovarian = test system: SK-OV-3 ovarian
KM12 colon = test system: KM12 colon
UACC-257 melanoma = test system: UACC-257 melanoma
TK-10 renal = test system: TK-10 renal
IGROV1 ovarian = test system: IGROV1 ovarian
EKVX NSCLC = test system: EKVX NSCLC
SW-620 colon = test system: SW-620 colon
SF-268 CNS = test system: SF-268 CNS
HCT-15 colon = test system: HCT-15 colon
UO-31 renal = test system: UO-31 renal
M14 melanoma = test system: M14 melanoma
786-0 renal = test system: 786-0 renal
NCI-H460 NSCLC = test system: NCI-H460 NSCLC
SK-MEL-5 melanoma = test system: SK-MEL-5 melanoma
SNB-75 CNS = test system: SNB-75 CNS
MDA-MB-435 melanoma = test system: MDA-MB-435 melanoma
UACC-62 melanoma = test system: UACC-62 melanoma
A549 NSCLC = test system: A549 NSCLC
RXF 393 renal = test system: RXF 393 renal
OVCAR-3 ovarian = test system: OVCAR-3 ovarian
HS 578T breast = test system: HS 578T breast
LOX IMVI melanoma = test system: LOX IMVI melanoma
MCF7 breast = test system: MCF7 breast
SNB-19 CNS = test system: SNB-19 CNS
SK-MEL-28 melanoma = test system: SK-MEL-28 melanoma
RPMI-8226 leukemia = test system: RPMI-8226 leukemia
HCC-2998 colon = test system: HCC-2998 colon
COLO 205 colon = test system: COLO 205 colon
NCI-H23 lung = test system: NCI-H23 lung
K-562 leukemia = test system: K-562 leukemia
U251 glioblastoma = test system: U251 glioblastoma
CCRF-CEM leukemia = test system: CCRF-CEM leukemia
ACHN renal = test system: ACHN renal
SF-295 CNS = test system: SF-295 CNS
HOP-92 NSCLC = test system: HOP-92 NSCLC
T-47D breast = test system: T-47D breast
HT29 colon = test system: HT29 colon
A498 renal = test system: A498 renal
NCI-H322M lung = test system: NCI-H322M lung

Q: With Nc1nc(Cl)nc2c1ncn2[C@@H]1O[C@H](COS(N)(=O)=O)[C@@H](O)[C@H]1O as the compound, how does the GI50 (MDA-MB-468 breast) read?
A: 13.3 nM

Q: What about the TGI (MDA-MB-468 breast) of the same compound?
A: 26.5 nM

Q: What about the GI50 (PC-3 prostate) of the same compound?
A: 12.3 nM

Q: What about the TGI (PC-3 prostate) of the same compound?
A: 33.6 nM

Q: And the GI50 (MALME-3M melanoma)?
A: 11.1 nM

Q: And the TGI (MALME-3M melanoma)?
A: 23.3 nM

Q: What about the TGI (HCT-116 colon) of the same compound?
A: 40.9 nM

Q: What about the GI50 (CAKI-1 renal) of the same compound?
A: 15.7 nM

Q: And the TGI (CAKI-1 renal)?
A: 42.2 nM

Q: And the GI50 (SF-539 CNS)?
A: 15 nM

Q: And the TGI (SF-539 CNS)?
A: 28.6 nM

Q: And the GI50 (SK-OV-3 ovarian)?
A: 12.4 nM

Q: And the TGI (SK-OV-3 ovarian)?
A: 44.1 nM

Q: What about the TGI (KM12 colon) of the same compound?
A: 15.1 nM

Q: What about the GI50 (UACC-257 melanoma) of the same compound?
A: 20.1 nM

Q: And the TGI (UACC-257 melanoma)?
A: 36.5 nM

Q: And the TGI (TK-10 renal)?
A: 36 nM

Q: What about the GI50 (IGROV1 ovarian) of the same compound?
A: 20.5 nM

Q: And the TGI (IGROV1 ovarian)?
A: 54.7 nM

Q: And the GI50 (EKVX NSCLC)?
A: 22.3 nM

Q: What about the TGI (EKVX NSCLC) of the same compound?
A: 49.5 nM

Q: And the TGI (SW-620 colon)?
A: 42.8 nM

Q: And the TGI (SF-268 CNS)?
A: 11.4 nM

Q: What about the GI50 (HCT-15 colon) of the same compound?
A: 20.7 nM

Q: And the TGI (HCT-15 colon)?
A: 45.1 nM

Q: And the GI50 (UO-31 renal)?
A: 19.4 nM

Q: What about the TGI (UO-31 renal) of the same compound?
A: 35.8 nM

Q: What about the GI50 (M14 melanoma) of the same compound?
A: 16.6 nM

Q: What about the TGI (M14 melanoma) of the same compound?
A: 30.4 nM

Q: What about the GI50 ([…]-0 renal) of the same compound?
A: 17.3 nM

Q: What about the TGI (786-0 renal) of the same compound?
A: 34.1 nM

Q: What about the TGI (NCI-H460 NSCLC) of the same compound?
A: 32 nM

Q: And the GI50 (SK-MEL-5 melanoma)?
A: 15.9 nM

Q: What about the TGI (SK-MEL-5 melanoma) of the same compound?
A: 29.6 nM

Q: And the TGI (SNB-75 CNS)?
A: 19.9 nM

Q: What about the TGI (MDA-MB-435 melanoma) of the same compound?
A: 16.7 nM

Q: What about the GI50 (UACC-62 melanoma) of the same compound?
A: 16.4 nM

Q: What about the TGI (UACC-62 melanoma) of the same compound?
A: 30.3 nM

Q: And the GI50 (A549 NSCLC)?
A: 15.6 nM

Q: And the TGI (A549 NSCLC)?
A: 44 nM

Q: What about the GI50 (RXF 393 renal) of the same compound?
A: 16.5 nM

Q: And the TGI (RXF 393 renal)?
A: 31.9 nM

Q: What about the GI50 (OVCAR-3 ovarian) of the same compound?
A: 20.9 nM

Q: What about the TGI (OVCAR-3 ovarian) of the same compound?
A: 41.5 nM

Q: What about the GI50 (HS 578T breast) of the same compound?
A: 15.1 nM

Q: And the TGI (HS 578T breast)?
A: 29.4 nM

Q: And the GI50 (LOX IMVI melanoma)?
A: 17.3 nM

Q: What about the TGI (LOX IMVI melanoma) of the same compound?
A: 31.6 nM

Q: What about the TGI (MCF7 breast) of the same compound?
A: 69.7 nM

Q: And the TGI (SNB-19 CNS)?
A: 13.6 nM

Q: What about the GI50 (SK-MEL-28 melanoma) of the same compound?
A: 13.8 nM

Q: What about the TGI (SK-MEL-28 melanoma) of the same compound?
A: 27.1 nM

Q: And the TGI (RPMI-8226 leukemia)?
A: 11.8 nM

Q: What about the GI50 (HCC-2998 colon) of the same compound?
A: 14.6 nM

Q: And the TGI (HCC-2998 colon)?
A: 28.9 nM

Q: And the GI50 (COLO 205 colon)?
A: 18.2 nM

Q: What about the TGI (COLO 205 colon) of the same compound?
A: 38 nM

Q: What about the GI50 (NCI-H23 lung) of the same compound?
A: 10.9 nM

Q: What about the TGI (NCI-H23 lung) of the same compound?
A: 24 nM

Q: What about the TGI (K-562 leukemia) of the same compound?
A: 14 nM

Q: And the GI50 (U251 glioblastoma)?
A: 14.3 nM

Q: And the TGI (U251 glioblastoma)?
A: 34.2 nM

Q: What about the TGI (CCRF-CEM leukemia) of the same compound?
A: 10.5 nM

Q: What about the GI50 (ACHN renal) of the same compound?
A: 24.3 nM

Q: What about the TGI (ACHN renal) of the same compound?
A: 57.5 nM

Q: What about the GI50 (SF-295 CNS) of the same compound?
A: 21.4 nM

Q: What about the TGI (SF-295 CNS) of the same compound?
A: 48.3 nM

Q: What about the GI50 (HOP-92 NSCLC) of the same compound?
A: 10 nM

Q: What about the TGI (HOP-92 NSCLC) of the same compound?
A: 25 nM

Q: And the TGI (T-47D breast)?
A: 50.7 nM

Q: What about the GI50 (HT29 colon) of the same compound?
A: 18.4 nM

Q: What about the TGI (HT29 colon) of the same compound?
A: 33.3 nM

Q: What about the GI50 (A498 renal) of the same compound?
A: 19.8 nM

Q: And the TGI (A498 renal)?
A: 39.2 nM

Q: What about the TGI (NCI-H322M lung) of the same compound?
A: 27.4 nM
